Laboratory results reported in US20240385173A1, “METHODS AND APPARATUS FOR TESTING IMMUNO-ONCOLOGY DRUGS AND BIOLOGICS USING MICROORGANOSPHERES” (Xilis, Inc., priority 2021, published 2024).
Entries after “also recorded” stand apart in the source; their conditions may differ. Read-outs that look alike come from different tables or passages of the source.

Columns and labels:
patient tumor = test: Actual response of the patient's tumor to drug treatment; type: in vivo, human; settings: for patient response to treatment: Example 3 patient, treated with both Oxalipalatin and Irinotecan, after 6 months of treatment
Experimental: (§1) In a similar set of experiments, MOSs were generated from biopsy material (FIG. 23A), and a drug effect screen was performed using the resulting MOSs. […] Thus, the MOSs correlated strongly with patient response to the standard of care drugs. In this case, the patient endured six months of side effects and toxicities that may have been avoided by the predicted response from the MOSs, indicating (within 7-10 days from the biopsy) that the tumor would not respond to these drugs.

[1] = tested on: PDX19187 bulk organoids and MOSs; type: cell-based, human; settings: PDX19187 (also printed PDO19187, PDZ-19187), cell viabilities after 3 days of treatment
Experimental: (§2) Organoids were formed from Patient Derived Xenograft cells (including the PDX240 cells described above and a second PDX cell line, PDX19187) and were compared with MOSs formed using the same cells. The organoids were formed using conventional techniques in which a large mass of MATRIGEL in a well or dish was seeded with cells and cultured until growth was confirmed. MOSs were generated from the traditional organoids.
(§3) Both traditional (“bulk”) organoids and the MOSs were then treated with the same drugs (e.g., Oxaliplatin or SN38) and cell viabilities were measured after 3 days of treatment.

[2] = tested on: tumor MOSs from patient biopsy; test: Drug screen on tumor MOSs generated from a patient biopsy (Example 2); type: cell-based, human; settings: FIG. 22B
[3] = tested on: MOSs from biopsy material; test: Drug effect screen on MOSs generated from biopsy material (Example 3); type: cell-based, human; settings: FIGS. 23B, 23C
Experimental: as §1

traditional cell line = test: Traditional (2D) cell line dosed with drug; type: cell-based; settings: all dose ranges examined; FIG. 22A
From the text: As mentioned above, the MOSs and methods of using them to screen for drug compositions may be used to accurately predict the response of a patient tumor to one or more drug therapies. […] For example, in FIG. 22A-22D, the MOSs, but not a cell line, was able to correlate with patient response.

human liver MOSs = test: Toxicity assay using human liver MOSs; type: cell-based; settings: 10 mM; FIGS. 34A-34B
From the text: Similarly, FIGS. 34A-34B also show toxicity assays using human liver MOSs.

mouse liver MOSs = test: Toxicity assay using mouse liver MOSs; type: cell-based; settings: 10 mM; FIGS. 33A-33B
[4] = tested on: PDX240 bulk organoids and MOSs; test: Cell viability drug response curves, bulk organoids versus MOSs, PDX240; type: cell-based, human; settings: cell viabilities after 3 days of treatment
From the text: In some embodiments, the MOSs may be formed from cell lines grown as part of a Patient Derived Xenograft (PDX). For example, FIGS. 28A-28D illustrate MOSs formed from cultured PDX240 cells. PDX240 cells are a Patient Derived Xenograft (PDX) tumor cell line (numbered 240 based on patient source) that were human tumors grown in immunodeficient mice (PDX) to form in vivo tumors. The xenograft tissue was extracted dissociated, and used to form MOSs as described above. In this example a single cell was included in each MOS as it was formed. […] With progressive time in culture, at least some of the MOSs show the cells dividing and forming structures.
as §2, §3

[5] = tested on: MOSs derived from multiple myeloma (MM) bone marrow biopsies; test: Caspase 3/7 green dye apoptosis assay on multiple myeloma MOSs (Incucyte imaging); type: cell-based, human; settings: MM MOSs on day 11, images every 2 hours for 4 days
Experimental: FIGS. 44A and 44B show the efficacy of Lenalidomide and Bortezoid on MOSs derived from multiple myeloma (MM) bone marrow biopsies. MM MOSs (on day 11) were treated with Lenalidomine (5 uM) or Bortezoid (2 nM). Caspase 3/7 green dye was added in the assay to monitor apoptosis. Incucyte images were taken every 2 hours for 4 days. […] If this test were run on, for example, traditional bulk organoids, the results would not be reliable (due to the lack of patient immune cells) leading to uncertainty in the best course of action for patient treatment.

[6] = tested on: MOSs derived from renal tumor biopsy; test: Annexin V apoptosis assay on MOSs derived from a renal tumor biopsy; type: cell-based, human
Experimental: (§4) Assays of the MOSs for these pulmonary and renal tumor biopsies were prepared with an Annexin V marker to indicate cellular apoptosis. […] If this test were run on, for example, traditional bulk organoids, the results would not be meaningful (due to the lack of patient immune cells) leading to uncertainty in the best course of action for patient treatment.

[7] = tested on: MOSs derived from pulmonary tumor biopsy; test: Annexin V apoptosis assay on MOSs derived from a pulmonary tumor biopsy; type: cell-based, human
Experimental: as §4
(§5) Assays of the MOSs for this pulmonary tumor biopsy were prepared with an Annexin V marker to indicate cellular apoptosis. […] If this test were run on, for example, traditional bulk organoids, the results would be less accurate (because ESK1 would not be able to reach its target) leading to uncertainty in the best course of action for patient treatment.
as §5, with “apoptosis and Cytolight Red dye to indicate tumor infiltrating lymphocytes (TIIs).” for “apoptosis.”, “(due” for “(because ESK1 would not be able”, “the inability of PBMC to penetrate the traditional bulk organoids)” for “reach its target)”
Assays of the MOSs for this pulmonary tumor biopsy were prepared with an Annexin V marker to indicate cellular apoptosis. […] This is an indication that TIIs can penetrate MOS to kill tumor cells. […]

Q: What does the source list for O=C1[O][Pt]2([NH][C@@H]3CCCC[C@H]3[NH]2)[O]C1=O [Oxaliplatin]?
A: tumor response when patient treated with the drug (patient tumor; Example 2 patient, FIGS. 22C (before) and 22D (post treatment)): responded to treatment; patient response to treatment (patient tumor): no response; drug response curves of bulk organoids compared with MOSs (cell viability) ([1]; listed as Oxalipalatin): comparable response; cell survival from the tumor MOSs [2]: significant decreases in cell survival; percent survival of the MOSs in the presence of the drug [3]: no change in the percent survival; effect of drug on traditional cell line (traditional cell line): no effect

Q: With CC(=O)Nc1ccc(O)cc1 [acetaminophen] as the molecule, how does the “effect on tissue in human liver MOSs versus control group” value (human liver MOSs) read?
A: The value was “significant increase atypical tissue structures (arrows) and debris”.

Q: What about the “effect on tissue in mouse liver MOSs versus control group” value (mouse liver MOSs) of the same molecule?
A: Its value is “smaller and contains many dead cells”.

Q: With O=c1[nH]cc(F)c(=O)[nH]1 [5-FU, Fluorouracil] as the molecule, how does the “drug response curves of bulk organoids compared with MOSs (cell viability)” value [4] read?
A: The value was “comparable responses”.

Q: Which results are given for CCc1c2c(nc3ccc(O)cc13)-c1cc3c(c(=O)n1C2)COC(=O)[C@]3(O)CC [SN38, 7-Ethyl-10-hydroxy-camptothecin]?
A: drug response curves of bulk organoids compared with MOSs (cell viability) [1]: comparable responses; drug response curves of bulk organoids compared with MOSs (cell viability) [4]: comparable responses

Q: How did the “response of MM MOSs in the form of tumor cell apoptosis (Caspase 3/7 green dye)” value (from here on “response of MM MOSs”) ([5]; 2 nM) turn out when CC(C)C[C@H](NC(=O)[C@H](Cc1ccccc1)NC(=O)c1cnccn1)B(O)O [Bortezoid] was run?
A: Its value is “does not and not”.

Q: How did the “response of MOSs in the form of tumor cell apoptosis (Annexin V marker)” value [6] turn out when Nivolumab was run?
A: Its value is “induces apoptosis; also recorded: good response”.

Q: What about the “response of MOSs in the form of tumor cell apoptosis (Annexin V marker)” value [7] of the same molecule?
A: Its value is “induces apoptosis; also recorded: good response”.

Q: With Nc1cccc2c1CN(C1CCC(=O)NC1=O)C2=O (stereo not drawn) [Lenalidomide] as the molecule, how does the “response of MM MOSs” value ([5]; 5 uM) read?
A: The value was “good response”.

Q: What about the “response of MM MOSs” value ([5]; 5 uM, listed as Lenalidomine) of the same molecule?
A: Its value is “induces apoptosis”.

Q: Which “patient response to treatment” value (patient tumor) does the source give for CCc1c2c(nc3ccc(OC(=O)N4CCC(N5CCCCC5)CC4)cc13)-c1cc3c(c(=O)n1C2)COC(=O)[C@]3(O)CC [Irinotecan] here?
A: Its value is “no response”.

Q: What about the “percent survival of the MOSs in the presence of the drug” value [3] of the same molecule?
A: Its value is “lack of effect”.
